# From US10730911B2, “Backbone-cyclized peptidomimetics with GLP-1R modulating activity” (POLYPHOR AG, priority 2015, dated 2020)
# Where a SMILES comes first, the peptide text is derived from it. [ ]: non-standard residue; d: D form. Aad = N[C@@H](CCCC(=O)O)C(=O)O; Aic = NC1(C(=O)O)Cc2ccccc2C1; Phg = N[C@H](C(=O)O)c1ccccc1; Ac8c = NC1(C(=O)O)CCCCCCC1; Ac7c = NC1(C(=O)O)CCCCCC1; Ac6c = NC1(C(=O)O)CCCCC1; Ac5c = NC1(C(=O)O)CCCC1; Deg = CCC(N)(CC)C(=O)O; Aib = CC(C)(N)C(=O)O
# Target: T1, human glucagon-like peptide-1 receptor (GLP-1R) (Homo sapiens, UniProt P43220)
# T1 construct: host or cells: CHO chAMPion cells
# T1 sequence (P43220 24-463): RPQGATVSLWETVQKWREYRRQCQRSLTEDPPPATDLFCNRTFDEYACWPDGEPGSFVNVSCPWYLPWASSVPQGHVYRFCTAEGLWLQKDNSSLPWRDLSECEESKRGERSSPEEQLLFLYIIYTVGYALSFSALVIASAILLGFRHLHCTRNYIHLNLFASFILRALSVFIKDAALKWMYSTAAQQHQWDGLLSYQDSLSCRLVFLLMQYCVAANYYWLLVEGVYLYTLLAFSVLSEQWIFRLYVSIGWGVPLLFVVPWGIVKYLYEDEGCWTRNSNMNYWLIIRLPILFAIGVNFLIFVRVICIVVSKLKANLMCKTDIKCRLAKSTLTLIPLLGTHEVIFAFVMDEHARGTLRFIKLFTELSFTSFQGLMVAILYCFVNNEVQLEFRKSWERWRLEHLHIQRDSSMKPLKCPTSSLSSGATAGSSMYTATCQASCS
# Experiment: Human GLP-1 receptor cell-based assay (flash luminescence, Target Activation phase)
# Settings: CHO chAMPion cells stably co-expressing human GLP-1R, Photina and cAMP-activated calcium channel; agonist activity; normalization by forskolin at 10 μM; ^a) values from single experiment; read-out: EC50 (μM) Target Activation (TA)
# Summary of the method: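 CHO cells co-expressing human GLP-1R, photoprotein and a cAMP-gated Ca2+ channel, preloaded 4 h with coelenterazine and 500 μM IBMX. Compounds at 8 concentrations from 50 μM, quadruplicate; 30 min later 10 mM CaCl2 added and flash luminescence read. EC50 normalized to 10 μM forskolin or 3.16 nM GLP-1.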
row,EC50 [µM],SMILES
1,5.1 ± 1.4,"CC(C)C[C@@H]1NC(=O)[C@H](CCC(N)=O)NC(=O)[C@H](Cc2c[nH]c3ccccc23)NC(=O)[C@H](Cc2ccccc2)NC(=O)C2(CCCC2)NC(=O)[C@H]2CCCN2C(=O)[C@H](Cc2ccccc2)NC(=O)[C@H](CCC(=O)O)NC(=O)[C@H](Cc2c[nH]c3ccccc23)NC(=O)[C@H](C)NC1=O [compound 46, cyclo(-Phe-Trp-Gln-Leu-Ala-Trp-Glu-Phe-^DPro-Cyp-)] (cyclo(FWQLAWEF[dP][Ac5c]))"
2,2,"CCC1(CC)NC(=O)[C@H]2CCCN2C(=O)[C@H](Cc2ccccc2)NC(=O)[C@H](CCC(=O)O)NC(=O)[C@H](Cc2c[nH]c3ccccc23)NC(=O)[C@H](C)NC(=O)[C@H](CC(C)C)NC(=O)[C@H](CC(C)C)NC(=O)[C@H](CCC(=O)O)NC(=O)[C@H](Cc2ccccc2)NC1=O [compound 47, cyclo(-Phe-Glu-Leu-Leu-Ala-Trp-Glu-Phe-^DPro-Deg-)] (cyclo(FELLAWEF[dP][Deg]))"
3,0.9 ± 0.18,"CC(C)C[C@@H]1NC(=O)[C@H](CCC(=O)O)NC(=O)[C@H](Cc2ccccc2)NC(=O)C2(CCCC2)NC(=O)[C@H]2CCCN2C(=O)[C@H](Cc2ccccc2)NC(=O)[C@H](CCC(=O)O)NC(=O)[C@H](Cc2c[nH]c3ccccc23)NC(=O)[C@H](C)NC(=O)[C@H](Cc2ccc(O)cc2)NC1=O [compound 48, cyclo(-Phe-Glu-Leu-Tyr-Ala-Trp-Glu-Phe-^DPro-Cyp-)] (cyclo(FELYAWEF[dP][Ac5c]))"
4,3.1,"CC(C)C[C@@H]1NC(=O)[C@H](CCC(N)=O)NC(=O)[C@H](Cc2ccccc2)NC(=O)C2(CCCCC2)NC(=O)[C@H]2CCCN2C(=O)[C@H](Cc2ccc(O)cc2)NC(=O)[C@H](CCCC(=O)O)NC(=O)[C@H](Cc2c[nH]c3ccccc23)NC(=O)[C@H](C)NC(=O)[C@H](Cc2ccc(O)cc2)NC1=O [compound 49, cyclo(-Phe-Gln-Leu-Tyr-Ala-Trp-Hgl-Tyr-^DPro-Chx-)] (cyclo(FQLYAW[Aad]Y[dP][Ac6c]))"
5,2.4,"CC(C)C[C@@H]1NC(=O)[C@H](CCC(=O)O)NC(=O)[C@H](Cc2ccccc2)NC(=O)C2(CCCCC2)NC(=O)[C@H]2CCCN2C(=O)[C@H](c2ccccc2)NC(=O)[C@H](CCC(=O)O)NC(=O)[C@H](Cc2c[nH]c3ccccc23)NC(=O)[C@H](C)NC(=O)[C@H](Cc2ccc(O)cc2)NC1=O [compound 50, cyclo(-Phe-Glu-Leu-Tyr-Ala-Trp-Glu-Phg-^DPro-Chx-)] (cyclo(FELYAWE[Phg][dP][Ac6c]))"
6,3.3,"CC(C)C[C@@H]1NC(=O)[C@H](Cc2c[nH]cn2)NC(=O)[C@H](Cc2ccccc2)NC(=O)C(C)(C)NC(=O)[C@H]2CCCN2C(=O)[C@H](Cc2ccc(O)cc2)NC(=O)[C@H](CCC(N)=O)NC(=O)[C@H](Cc2c[nH]c3ccccc23)NC(=O)[C@H](C)NC(=O)[C@H](Cc2ccc(O)cc2)NC1=O [compound 51, cyclo(-Phe-His-Leu-Tyr-Ala-Trp-Gln-Tyr-^DPro-Aib-)] (cyclo(FHLYAWQY[dP][Aib]))"
7,0.82 ± 0.25,"CC(C)C[C@@H]1NC(=O)[C@H](CC(C)C)NC(=O)[C@H](CCC(=O)O)NC(=O)[C@H](Cc2ccccc2)NC(=O)C2(Cc3ccccc3C2)NC(=O)[C@H]2CCCN2C(=O)[C@H](Cc2ccccc2)NC(=O)[C@H](CCC(=O)O)NC(=O)[C@H](Cc2c[nH]c3ccccc23)NC(=O)[C@H](C)NC1=O [compound 52, cyclo(-Phe-Glu-Leu-Leu-Ala-Trp-Glu-Phe-^DPro-Ind-)] (cyclo(FELLAWEF[dP][Aic]))"
8,2.1,"CC(C)C[C@@H]1NC(=O)[C@H](CC(C)C)NC(=O)[C@H](CCC(=O)O)NC(=O)[C@H](Cc2ccccc2)NC(=O)C2(CCCCCC2)NC(=O)[C@H]2CCCN2C(=O)[C@H](Cc2ccccc2)NC(=O)[C@H](CCC(=O)O)NC(=O)[C@H](Cc2c[nH]c3ccccc23)NC(=O)[C@H](C)NC1=O [compound 53, cyclo(-Phe-Glu-Leu-Leu-Ala-Trp-Glu-Phe-^DPro-Ac7c-)] (cyclo(FELLAWEF[dP][Ac7c]))"
9,1.1,"CC(C)C[C@@H]1NC(=O)[C@H](CC(C)C)NC(=O)[C@H](CCC(=O)O)NC(=O)[C@H](Cc2ccccc2)NC(=O)C2(CCCCCCC2)NC(=O)[C@H]2CCCN2C(=O)[C@H](Cc2ccccc2)NC(=O)[C@H](CCC(=O)O)NC(=O)[C@H](Cc2c[nH]c3ccccc23)NC(=O)[C@H](C)NC1=O [compound 54, cyclo(-Phe-Glu-Leu-Leu-Ala-Trp-Glu-Phe-^DPro-Ac8c-)] (cyclo(FELLAWEF[dP][Ac8c]))"
